Measured values as given in ChEMBL document CHEMBL1123605, “Renin inhibitors. Dipeptide analogues of angiotensinogen incorporating transition-state, nonpeptidic replacements at the scissile bond” (J Med Chem, 1987).

Key:
Renin [1] = biological target: T1, Renin (Homo sapiens, UniProt P00797); assay: Inhibition against purified human renin
T1 sequence (P00797 whole entry): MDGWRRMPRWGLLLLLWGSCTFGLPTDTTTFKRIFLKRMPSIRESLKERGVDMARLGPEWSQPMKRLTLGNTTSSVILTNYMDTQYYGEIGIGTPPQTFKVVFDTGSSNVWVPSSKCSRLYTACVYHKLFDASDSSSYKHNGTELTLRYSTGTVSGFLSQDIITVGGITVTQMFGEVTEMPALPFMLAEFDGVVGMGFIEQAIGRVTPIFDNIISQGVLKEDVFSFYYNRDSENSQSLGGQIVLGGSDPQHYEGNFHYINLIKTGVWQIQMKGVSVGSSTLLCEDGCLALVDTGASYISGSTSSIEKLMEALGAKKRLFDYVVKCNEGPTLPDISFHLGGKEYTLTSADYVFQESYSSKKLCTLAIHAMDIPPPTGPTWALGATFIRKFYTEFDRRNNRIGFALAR

Cathepsin D = biological target: T2, Cathepsin D (Bos taurus, UniProt P80209); assay: Inhibition against cathepsin D
T2 sequence (P80209 whole entry): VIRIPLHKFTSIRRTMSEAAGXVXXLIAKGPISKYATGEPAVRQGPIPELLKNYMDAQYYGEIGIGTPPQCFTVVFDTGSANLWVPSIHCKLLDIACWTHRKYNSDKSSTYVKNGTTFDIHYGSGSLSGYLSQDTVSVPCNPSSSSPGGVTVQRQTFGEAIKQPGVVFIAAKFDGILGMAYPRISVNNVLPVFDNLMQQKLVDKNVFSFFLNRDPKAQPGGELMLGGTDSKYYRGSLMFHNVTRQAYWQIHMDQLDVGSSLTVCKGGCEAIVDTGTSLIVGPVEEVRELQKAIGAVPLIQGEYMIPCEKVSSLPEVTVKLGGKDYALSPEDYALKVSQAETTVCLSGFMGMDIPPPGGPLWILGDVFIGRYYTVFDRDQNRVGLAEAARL

Renin [2] = biological target: T1, Renin; assay: Inhibition against purified human renal renin
Renin [3] = biological target: T1, Renin; assay: Inhibition against human plasma renin; assay type: cell-free
Renin [4] = biological target: T3, Renin (Rattus norvegicus, UniProt P08424); assay: Inhibition against rat plasma renin.; assay type: cell-free
T3 sequence (P08424 whole entry): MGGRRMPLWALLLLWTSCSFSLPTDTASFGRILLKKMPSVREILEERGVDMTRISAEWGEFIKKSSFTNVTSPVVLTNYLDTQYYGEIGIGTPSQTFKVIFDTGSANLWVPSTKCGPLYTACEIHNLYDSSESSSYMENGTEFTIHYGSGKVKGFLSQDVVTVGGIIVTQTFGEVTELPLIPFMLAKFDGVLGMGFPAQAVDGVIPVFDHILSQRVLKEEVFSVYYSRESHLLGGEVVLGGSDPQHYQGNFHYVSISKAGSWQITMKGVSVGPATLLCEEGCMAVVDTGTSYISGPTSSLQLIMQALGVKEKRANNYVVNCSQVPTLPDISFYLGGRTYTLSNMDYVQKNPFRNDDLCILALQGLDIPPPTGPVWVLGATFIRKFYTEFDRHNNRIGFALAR

Cathepsin D (Bos taurus) = biological target: T4, Cathepsin D (Bos taurus) (UniProt P80209); assay: Percentage inhibition against cathepsin D at 1.0x10E-5M
T4 sequence (whole entry): T2 sequence (P80209 whole entry)

[5] = biological target: T5, Renin (Rattus norvegicus) (UniProt P08424); assay: Percentage inhibition against rat plasma renin; assay type: cell-free; conditions: concentration not given here
T5 sequence (whole entry): T3 sequence (P08424 whole entry)

Pepsin A (Sus scrofa) = Pepsin A (Sus scrofa) (UniProt P00791); assay: Percentage inhibition against pepsin; NI=no inhibition at 1.0x10E-5M
Sequence of Pepsin A (Sus scrofa) (P00791 60-385 limits assumed): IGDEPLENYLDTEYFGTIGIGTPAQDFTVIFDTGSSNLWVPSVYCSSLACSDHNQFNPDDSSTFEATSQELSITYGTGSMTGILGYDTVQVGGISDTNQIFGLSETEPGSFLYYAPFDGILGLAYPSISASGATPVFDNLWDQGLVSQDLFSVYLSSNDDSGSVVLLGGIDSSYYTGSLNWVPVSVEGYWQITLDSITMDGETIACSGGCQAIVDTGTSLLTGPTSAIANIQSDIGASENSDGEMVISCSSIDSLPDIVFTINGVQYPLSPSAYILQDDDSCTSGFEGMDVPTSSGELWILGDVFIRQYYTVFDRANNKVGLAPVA

[6] = biological target: T5, Renin (Rattus norvegicus); assay: Percentage inhibition against rat plasma renin at 1.0x10E-5M; assay type: cell-free
Renin [7] = biological target: T3, Renin; assay: Inhibition against rat plasma renin; assay type: cell-free

Structure (SMILES)	IC50 (Renin [1])	IC50 (Cathepsin D)	IC50 (Renin [2])	IC50 (Renin [3])	IC50 (Renin [4])	inhibition (Cathepsin D (Bos taurus))	inhibition (Pepsin A (Sus scrofa))	inhibition [6]	also measured
CC(C)C[C@H](NC(=O)[C@H](C)NC(=O)[C@H](Cc1ccccc1)NC(=O)OC(C)(C)C)[C@@H](O)CCS(=O)(=O)CC(C)C	3200 nM	–	–	–	–	–	–	–	–
CCOC(=O)N[C@@H](Cc1ccccc1)C(=O)N[C@@H](Cc1cnc[nH]1)C(=O)N[C@@H](CC1CCCCC1)[C@@H](O)CCS(=O)(=O)C(C)C	–	> 10000 nM	10 nM	23 nM	> 10000 nM	–	–	–	–
CC(C)C[C@H](NC(=O)[C@H](C)NC(=O)[C@H](Cc1ccccc1)NC(=O)OC(C)(C)C)[C@@H](O)CCSCCc1ccccc1	4200 nM	–	–	–	–	–	–	–	–
CCS(=O)(=O)CC[C@H](O)[C@H](CC1CCCCC1)NC(=O)[C@H](Cc1c[nH]cn1)NC(=O)[C@H](Cc1ccccc1)NC(=O)OC(C)(C)C	–	–	–	–	–	0%	–	–	inhibition [5]: 0%
CC(C)CC[S+]([O-])CC[C@H](O)[C@H](CC(C)C)NC(=O)[C@H](C)NC(=O)[C@H](Cc1ccccc1)NC(=O)OC(C)(C)C (some centres not stated)	5200 nM	–	–	–	–	–	–	–	–
CC(C)C[C@H](NC(=O)[C@H](C)NC(=O)[C@H](Cc1ccccc1)NC(=O)OC(C)(C)C)[C@@H](O)CCS(=O)(=O)CCc1ccccc1	1800 nM	–	–	–	–	–	–	–	–
CC(C)CCS(=O)(=O)CC[C@H](O)[C@H](CC(C)C)NC(=O)[C@H](C)NC(=O)[C@H](Cc1ccccc1)NC(=O)OC(C)(C)C	2400 nM	–	–	–	–	–	–	–	–
CC[C@H](C)[C@H](NC(=O)[C@@H](NC(O)[C@H](CC(C)C)NC(=O)[C@H](Cc1c[nH]cn1)NC(=O)[C@H](Cc1ccccc1)NC(=O)[C@@H]1CCCN1C(=O)[C@H](Cc1c[nH]cn1)NC(=O)OC(C)(C)C)C(C)C)C(=O)N[C@@H](Cc1c[nH]cn1)C(=O)O (some centres not stated)	–	–	–	0.7 nM	–	–	–	–	–
CC(C)C[C@H](NC(=O)[C@H](C)NC(=O)[C@H](Cc1ccccc1)NC(=O)OC(C)(C)C)[C@@H](O)CCS(=O)(=O)C(C)C	1600 nM	–	–	–	–	–	–	–	–
CC(C)S(=O)(=O)CC[C@H](O)[C@H](CC1CCCCC1)NC(=O)[C@H](Cc1ccccc1)NC(=O)[C@H](Cc1ccccc1)NC(=O)OC(C)(C)C	–	> 10000 nM	20 nM	340 nM	> 10000 nM	0%	No inhibition	26%	–
CC(C)CCC(O)CC[C@H](O)[C@H](CC(C)C)NC(=O)[C@H](C)NC(=O)[C@H](Cc1ccccc1)NC(=O)OC(C)(C)C (some centres not stated)	3800 nM	–	–	–	–	–	–	–	–
CCOC(=O)N[C@@H](Cc1ccccc1)C(=O)N[C@@H](Cc1c[nH]cn1)C(=O)N[C@@H](CC1CCCCC1)[C@@H](O)CCS(=O)(=O)C(C)C	–	–	–	–	–	0%	No inhibition	12%	–
CC(C)S(=O)(=O)CC[C@H](O)[C@H](CC1CCCCC1)NC(=O)[C@H](C)NC(=O)[C@H](Cc1ccccc1)NC(=O)OC(C)(C)C	–	> 10000 nM	76 nM	850 nM	> 10000 nM	22%	No inhibition	12%	–
CC(C)CCC(=O)CC[C@H](O)[C@H](CC(C)C)NC(=O)[C@H](C)NC(=O)[C@H](Cc1ccccc1)NC(=O)OC(C)(C)C	2400 nM	–	–	–	–	–	–	–	–
CC(C)CCSCC[C@H](O)[C@H](CC(C)C)NC(=O)[C@H](C)NC(=O)[C@H](Cc1ccccc1)NC(=O)OC(C)(C)C	5500 nM	–	–	–	–	–	–	–	–
CC(C)S(=O)(=O)CC[C@H](O)[C@H](CC1CCCCC1)NC(=O)[C@H](Cc1c[nH]cn1)NC(=O)[C@H](Cc1ccccc1)NC(=O)OC(C)(C)C	7.6 nM	10000 nM	–	27 nM	–	0%	–	–	inhibition [5]: 11%; IC50 (Renin [7]): 10000 nM
CC(C)C[C@H](NC(=O)[C@H](C)NC(=O)[C@H](Cc1ccccc1)NC(=O)OC(C)(C)C)[C@@H](O)CCSC(C)C	4800 nM	–	–	–	–	–	–	–	–
COc1ccc(C[C@H](NC(=O)OC(C)(C)C)C(=O)N[C@@H](Cc2c[nH]cn2)C(=O)N[C@@H](CC2CCCCC2)[C@@H](O)CCS(=O)(=O)C(C)C)cc1	–	> 10000 nM	9.1 nM	41 nM	> 10000 nM	0%	No inhibition	0%	–
CC(C)S(=O)(=O)CC[C@H](O)[C@H](CC1CCCCC1)NC(=O)[C@H](Cc1c[nH]cn1)NC(=O)[C@H](Cc1ccccc1)NC(=O)CC(C)(C)C	–	> 10000 nM	6 nM	19 nM	> 10000 nM	0%	No inhibition	30%	–
CCS(=O)(=O)CC[C@H](O)[C@H](CC1CCCCC1)NC(=O)[C@H](C)NC(=O)[C@H](Cc1ccccc1)NC(=O)OC(C)(C)C	–	> 10000 nM	140 nM	1000 nM	> 10000 nM	18%	No inhibition	2%	–
CCS(=O)(=O)CC[C@H](O)[C@H](CC1CCCCC1)NC(=O)[C@H](Cc1cnc[nH]1)NC(=O)[C@H](Cc1ccccc1)NC(=O)OC(C)(C)C	7.6 nM	> 10000 nM	–	28 nM	–	–	–	–	IC50 (Renin [7]): > 10000 nM
CC(C)C[C@H](NC(=O)[C@H](Cc1ccccc1)NC(=O)OC(C)(C)C)C(=O)N[C@@H](CC1CCCCC1)[C@@H](O)CCS(=O)(=O)C(C)C	–	8000 nM	14 nM	77 nM	> 10000 nM	–	No inhibition	18%	–
CC(C)CSCC[C@H](O)[C@H](CC(C)C)NC(=O)[C@H](C)NC(=O)[C@H](Cc1ccccc1)NC(=O)OC(C)(C)C	4100 nM	–	–	–	–	–	–	–	–
